Key:
Format in all cases: biochemical
TYK2 = TYK2 (Homo sapiens (Human), UniProt P29597); assay: JAK Caliper Enzyme Assay at 1 mM ATP, TYK2
Method in brief: (§1)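 First, compound was incubated at room temperature with recombinant human kinase domain, a synthetic peptide and 1 mM ATP until 20–30% of peptide was phosphorylated. Next, EDTA stopped the reaction. Finally, electrophoretic separation quantified product, and percent effect relative to controls was plotted against concentration.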

JAK1 = JAK1 (Homo sapiens (Human), UniProt P23458); assay: JAK Caliper Enzyme Assay at 1 mM ATP, JAK1
Chain of JAK1 (P23458 875-1153): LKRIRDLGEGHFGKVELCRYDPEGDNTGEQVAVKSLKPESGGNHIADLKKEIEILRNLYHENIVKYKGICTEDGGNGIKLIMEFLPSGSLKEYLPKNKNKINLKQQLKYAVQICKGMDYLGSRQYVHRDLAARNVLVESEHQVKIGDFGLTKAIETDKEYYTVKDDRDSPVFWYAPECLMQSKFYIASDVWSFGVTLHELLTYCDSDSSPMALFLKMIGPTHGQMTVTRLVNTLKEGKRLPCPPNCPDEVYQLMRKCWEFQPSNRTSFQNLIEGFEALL
Method in brief: (§2)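 Recombinant human kinase domains phosphorylated a fluorescent synthetic peptide at room temperature, with enzyme level and time tuned to 20% to 30% conversion; EDTA stop buffer ended reactions. Mobility-shift separation gave percent product from peak heights, normalised to DMSO and positive controls, and IC50s came from concentration–effect curves.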

JAK2 = JAK2 (Homo sapiens (Human), UniProt O60674); assay: JAK Caliper Enzyme Assay at 1 mM ATP, JAK2
Chain of JAK2 (O60674 849-1124): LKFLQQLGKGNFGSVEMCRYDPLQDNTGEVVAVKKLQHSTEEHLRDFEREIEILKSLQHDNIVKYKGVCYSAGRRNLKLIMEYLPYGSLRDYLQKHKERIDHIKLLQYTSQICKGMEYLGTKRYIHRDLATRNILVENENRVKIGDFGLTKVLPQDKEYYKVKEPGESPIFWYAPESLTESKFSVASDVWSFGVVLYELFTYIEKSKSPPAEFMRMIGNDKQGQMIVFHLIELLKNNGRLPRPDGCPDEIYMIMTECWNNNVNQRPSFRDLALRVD
Method in brief: as §1

JAK3 = JAK3 (Homo sapiens (Human), UniProt P52333); assay: JAK Caliper Enzyme Assay at 1 mM ATP, JAK3
Chain of JAK3 (P52333 822-1111): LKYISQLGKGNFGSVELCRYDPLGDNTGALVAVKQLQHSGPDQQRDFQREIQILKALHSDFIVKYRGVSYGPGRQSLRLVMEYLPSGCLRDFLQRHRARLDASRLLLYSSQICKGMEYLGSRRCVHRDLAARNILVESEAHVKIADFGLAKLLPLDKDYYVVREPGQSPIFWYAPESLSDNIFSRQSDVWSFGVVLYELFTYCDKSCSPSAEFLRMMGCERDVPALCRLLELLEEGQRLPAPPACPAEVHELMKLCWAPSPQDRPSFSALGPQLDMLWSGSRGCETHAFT
Method in brief: as §2

Chain of TYK2 (P29597 897-1176): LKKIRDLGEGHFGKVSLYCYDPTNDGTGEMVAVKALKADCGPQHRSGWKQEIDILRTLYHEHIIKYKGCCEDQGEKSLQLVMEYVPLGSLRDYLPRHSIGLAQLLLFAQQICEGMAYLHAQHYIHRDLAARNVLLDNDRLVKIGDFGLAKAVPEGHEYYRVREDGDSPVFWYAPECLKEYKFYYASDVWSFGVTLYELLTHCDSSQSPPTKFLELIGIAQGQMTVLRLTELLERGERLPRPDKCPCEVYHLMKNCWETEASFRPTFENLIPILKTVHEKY

Row | SMILES | IC50 (TYK2) [nM] | IC50 (JAK1) [nM] | IC50 (JAK2) [nM] | IC50 (JAK3) [nM]
1 | CS(=O)(=O)c1ccc(-c2cc3ncccc3c(-c3ccn(C4(CC#N)CC(C#N)C4)n3)n2)cn1 (stereo not drawn) [Example 207, cis-3-(cyanomethyl)-3-(3-{7-[6-(methylsulfonyl)pyridin-3-yl]-1,6-naphthyridin-5-yl}-1H-pyrazol-1-yl)cyclobutanecarbonitrile] | 24 | 285 | 56 | 9270
2 | CS(=O)(=O)c1ccc(-c2cc3ncccc3c(-c3ccn([C@]4(CC#N)C[C@@H](C#N)C4)n3)n2)cn1 [Example 208, trans-3-(cyanomethyl)-3-(3-{7-[6-(methylsulfonyl)pyridin-3-yl]-1,6-naphthyridin-5-yl}-1H-pyrazol-1-yl)cyclobutanecarbonitrile] | 81 | 2580 | 362 | > 10000
3 | CS(=O)(=O)N1CC(CC#N)(n2ccc(-c3nc(-c4ccc(S(N)(=O)=O)nc4)cc4ncccc34)n2)C1 [Example 209, 5-(5-{1-[3-(cyanomethyl)-1-(methylsulfonyl)azetidin-3-yl]-1H-pyrazol-3-yl}-1,6-naphthyridin-7-yl)pyridine-2-sulfonamide] | 51 | 1940 | 433 | > 10000
4 | N#CC[C@]1(n2ccc(-c3nc(-c4ccc(S(N)(=O)=O)nc4)cc4ncccc34)n2)C[C@H](C#N)C1 [Example 210, 5-(5-{1-[trans-3-cyano-1-(cyanomethyl)cyclobutyl]-1H-pyrazol-3-yl}-1,6-naphthyridin-7-yl)pyridine-2-sulfonamide] | 62 | 1530 | 300 | > 10000
5 | N#CC[C@]1(n2ccc(-c3nc(-c4ccc(S(N)(=O)=O)nc4)cc4ncccc34)n2)C[C@H](C#N)C1 [Example 211, 5-(5-{1-[cis-3-cyano-1-(cyanomethyl)cyclobutyl]-1H-pyrazol-3-yl}-1,6-naphthyridin-7-yl)pyridine-2-sulfonamide] | 17 | 181 | 39 | 9820
6 | N#CC[C@]1(n2ccc(-c3nc(-c4cccc(CO)n4)cc4ncccc34)n2)C[C@@H](C#N)C1 [Example 212, cis-3-(cyanomethyl)-3-(3-{7-[6-(hydroxymethyl)pyridin-2-yl]-1,6-naphthyridin-5-yl}-1H-pyrazol-1-yl)cyclobutanecarbonitrile] | 198 | 2950 | 900 | > 10000
7 | N#CC[C@]1(n2ccc(-c3nc(-c4ccnc(CO)c4)cc4ncccc34)n2)C[C@@H](C#N)C1 [Example 213, cis-3-(cyanomethyl)-3-(3-{7-[2-(hydroxymethyl)pyridin-4-yl]-1,6-naphthyridin-5-yl}-1H-pyrazol-1-yl)cyclobutanecarbonitrile] | 19 | 87 | 46 | 4330
8 | N#CC[C@]1(n2ccc(-c3nc(-c4cccc(C(N)=O)n4)cc4ncccc34)n2)C[C@H](C#N)C1 [Example 214, 6-(5-{1-[cis-3-cyano-1-(cyanomethyl)cyclobutyl]-1H-pyrazol-3-yl}-1,6-naphthyridin-7-yl)pyridine-2-carboxamide] | 53 | 2020 | 471 | > 10000
9 | N#CCC1(n2ccc(-c3nc(-c4ccnc(C(N)=O)c4)cc4ncccc34)n2)CN(CC(F)(F)F)C1 [Example 215, 4-(5-{1-[3-(cyanomethyl)-1-(2,2,2-trifluoroethyl)azetidin-3-yl]-1H-pyrazol-3-yl}-1,6-naphthyridin-7-yl)pyridine-2-carboxamide] | 175 | 6010 | 2190 | > 10000
10 | N#CC[C@]1(n2ccc(-c3nc(-c4ccnc(C(N)=O)c4)cc4ncccc34)n2)C[C@H](C#N)C1 [Example 216, 4-(5-{1-[cis-3-cyano-1-(cyanomethyl)cyclobutyl]-1H-pyrazol-3-yl}-1,6-naphthyridin-7-yl)pyridine-2-carboxamide] | 36 | 464 | 117 | > 10000
11 | Cc1ncc(-c2cc3ncccc3c(-c3ccn(C4(CC#N)CN(S(C)(=O)=O)C4)n3)n2)cc1N [Example 217, [3-{3-[7-(5-amino-6-methylpyridin-3-yl)-1,6-naphthyridin-5-yl]-1H-pyrazol-1-yl}-1-(methylsulfonyl)azetidin-3-yl]acetonitrile] | 189 | 9340 | 1620 | > 10000
12 | Cc1ccc(-c2cc3ncccc3c(-c3ccn(C4(CC#N)CN(S(C)(=O)=O)C4)n3)n2)c(N)n1 [Example 218, [3-{3-[7-(2-amino-6-methylpyridin-3-yl)-1,6-naphthyridin-5-yl]-1H-pyrazol-1-yl}-1-(methylsulfonyl)azetidin-3-yl]acetonitrile] | 38 | 2700 | 562 | > 10000
13 | Cc1cc(-c2cc3ncccc3c(-c3ccn(C4(CC#N)CN(S(C)(=O)=O)C4)n3)n2)cnc1N [Example 219, [3-{3-[7-(6-amino-5-methylpyridin-3-yl)-1,6-naphthyridin-5-yl]-1H-pyrazol-1-yl}-1-(methylsulfonyl)azetidin-3-yl]acetonitrile] | 488 | 6410 | 1750 | > 10000
14 | Cc1cc(-c2cc3ncccc3c(-c3ccn([C@]4(CC#N)C[C@@H](C#N)C4)n3)n2)cc(N)n1 [Example 220, trans-3-{3-[7-(2-amino-6-methylpyridin-4-yl)-1,6-naphthyridin-5-yl]-1H-pyrazol-1-yl}-3-(cyanomethyl)cyclobutanecarbonitrile] | 92 | 2140 | 768 | > 10000
15 | Cc1cc(-c2cc3ncccc3c(-c3ccn([C@]4(CC#N)C[C@H](C#N)C4)n3)n2)cc(N)n1 [Example 221, cis-3-{3-[7-(2-amino-6-methylpyridin-4-yl)-1,6-naphthyridin-5-yl]-1H-pyrazol-1-yl}-3-(cyanomethyl)cyclobutanecarbonitrile] | 21 | 230 | 93 | 6650
16 | Cc1ncc(-c2cc3ncccc3c(-c3ccn(C4(CC#N)CN(S(C)(=O)=O)C4)n3)n2)cc1O [Example 222, [3-{3-[7-(5-hydroxy-6-methylpyridin-3-yl)-1,6-naphthyridin-5-yl]-1H-pyrazol-1-yl}-1-(methylsulfonyl)azetidin-3-yl]acetonitrile] | 57 | > 10000 | 1300 | > 10000
17 | N#CCC1(n2ccc(-c3nc(-c4ccc(O)c(C(N)=O)n4)cc4ncccc34)n2)CC(C#N)C1 (stereo not drawn) [Example 226, 6-(5-{1-[trans-3-cyano-1-(cyanomethyl)cyclobutyl]-1H-pyrazol-3-yl}-1,6-naphthyridin-7-yl)-3-hydroxypyridine-2-carboxamide] | 112 | 3300 | 929 | > 10000
18 | N#CC[C@]1(n2ccc(-c3nc(-c4ccc(O)c(C(N)=O)n4)cc4ncccc34)n2)C[C@H](C#N)C1 [Example 227, 6-(5-{1-[cis-3-cyano-1-(cyanomethyl)cyclobutyl]-1H-pyrazol-3-yl}-1,6-naphthyridin-7-yl)-3-hydroxypyridine-2-carboxamide] | 1180 | > 10000 | 9300 | > 10000

From patent US11254668B2, “Pyrazolo[1,5-A]pyrazin-4-yl and related derivatives” (Pfizer Inc., priority 2017, dated 2022)
